Results taken from publication PMC11055985, “Metochalcone induces senescence-associated secretory phenotype via JAK2/STAT3 pathway in breast cancer” (Oncology Research, 2024).
pKd: −log10 of the molar value.

Target: STAT3 (Homo sapiens, UniProt P40763)
Test: microscale thermophoresis (MST) with His-tag-labelled purchased STAT3 protein (ACROBiosystems ST3-H5149)
Format: binding

Chain of STAT3 (P40763 2-770): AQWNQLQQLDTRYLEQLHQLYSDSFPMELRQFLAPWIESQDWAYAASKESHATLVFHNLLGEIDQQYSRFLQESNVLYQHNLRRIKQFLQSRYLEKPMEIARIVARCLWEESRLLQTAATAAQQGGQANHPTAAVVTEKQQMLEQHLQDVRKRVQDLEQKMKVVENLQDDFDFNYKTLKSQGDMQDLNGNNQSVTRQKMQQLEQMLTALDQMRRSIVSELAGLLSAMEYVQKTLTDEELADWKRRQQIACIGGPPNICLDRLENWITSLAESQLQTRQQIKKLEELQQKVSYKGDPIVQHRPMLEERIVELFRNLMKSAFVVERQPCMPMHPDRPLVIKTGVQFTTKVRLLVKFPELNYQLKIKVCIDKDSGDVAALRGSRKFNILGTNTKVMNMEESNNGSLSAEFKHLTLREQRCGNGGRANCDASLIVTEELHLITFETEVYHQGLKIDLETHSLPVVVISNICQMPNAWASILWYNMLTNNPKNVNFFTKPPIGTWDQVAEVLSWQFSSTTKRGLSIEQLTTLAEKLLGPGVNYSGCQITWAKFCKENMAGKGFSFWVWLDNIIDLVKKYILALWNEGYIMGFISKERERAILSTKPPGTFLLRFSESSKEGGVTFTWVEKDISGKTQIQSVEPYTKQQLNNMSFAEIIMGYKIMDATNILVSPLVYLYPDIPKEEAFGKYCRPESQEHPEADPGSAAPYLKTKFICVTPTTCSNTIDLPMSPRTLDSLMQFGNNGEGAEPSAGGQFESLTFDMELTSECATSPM

pKd: 5.01
Structure (SMILES): COc1ccc(/C=C/C(=O)c2ccc(OC)cc2OC)cc1 [TEC, 2', 4, 4'-trimethoxychalcone]
